Reference: paper PMC8359193, “Summary of reference chemicals evaluated by the fish short‐term reproduction assay, OECD TG229, using Japanese Medaka, Oryzias latipes” (Journal of Applied Toxicology, 2021)
Entries after “also recorded” stand apart in the source; their conditions may differ.

System: Japanese medaka (Oryzias latipes)
Assay: Fish short-term reproduction assay (FSTRA, OECD TG229), 21-day flow-through exposure
Conditions: for GSI Female / HSI Female / Length Female / Weight Female / GSI Male / HSI Male / Length Male / Weight Male: at completion of exposure; for Fertility rate (%) / Mortality (%) Female / Mortality (%) Male / Number of fertilized eggs / Number of total eggs / SSC Female / SSC Male / VTG (ng/mg of liver) Female / VTG (ng/mg of liver) Male: 21 days
In short: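 Japanese medaka (NIES-R strain, 16 ± 2 weeks old) were exposed in flow-through tanks for 3 weeks, three males and three females per tank, four replicate tanks per group, with a dilution water control. Concentrations were spaced by a factor of 2–5. Eggs were collected daily and counted as fertilized or unfertilized.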

**Q.** What does the source list for `CCCCCCCCCCCCOS(=O)(=O)[O-].[Na+]` [SDS, Sodium dodecyl sulfate]?
**A.** effect on fertility rate, in words (21-day exposure): significant decrease; also recorded: significant reduction; effect on male hepatic VTG, in words (21-day exposure): no VTG induction; GSI Female (measured conc. 0.748 mg/L): 10.9%; HSI Female (measured conc. 0.748 mg/L): 4.8%; Length Female (measured conc. 0.748 mg/L): 35.6 mm; Weight Female (measured conc. 0.748 mg/L): 547 mg; GSI Female (measured conc. 2.46 mg/L): 10.8%; HSI Female (measured conc. 2.46 mg/L): 4.8%; Length Female (measured conc. 2.46 mg/L): 36.6 mm; Weight Female (measured conc. 2.46 mg/L): 573 mg; GSI Female (measured conc. 10.0 mg/L): 11.0%; HSI Female (measured conc. 10.0 mg/L): 4.9%; Length Female (measured conc. 10.0 mg/L): 36.1 mm; Weight Female (measured conc. 10.0 mg/L): 573 mg; GSI Male (measured conc. 0.748 mg/L): 0.88%; HSI Male (measured conc. 0.748 mg/L): 2.3%; Length Male (measured conc. 0.748 mg/L): 36.7 mm; Weight Male (measured conc. 0.748 mg/L): 544 mg; GSI Male (measured conc. 2.46 mg/L): 0.91%; HSI Male (measured conc. 2.46 mg/L): 2.0%; Length Male (measured conc. 2.46 mg/L): 36.7 mm; Weight Male (measured conc. 2.46 mg/L): 519 mg; GSI Male (measured conc. 10.0 mg/L): 1.17%; HSI Male (measured conc. 10.0 mg/L): 2.2%; Length Male (measured conc. 10.0 mg/L): 35.6 mm; Weight Male (measured conc. 10.0 mg/L): 493 mg; Fertility rate (%) (measured conc. 0.748 mg/L): 95%; Mortality (%) Female (measured conc. 0.748 mg/L): 0%; Mortality (%) Male (measured conc. 0.748 mg/L): 0%; Number of fertilized eggs (measured conc. 0.748 mg/L): 27; Number of total eggs (measured conc. 0.748 mg/L): 29 ± 3.9 /female/day; SSC Female (measured conc. 0.748 mg/L): 0 ± 0; SSC Male (measured conc. 0.748 mg/L): 107 ± 8.7; VTG (ng/mg of liver) Female (measured conc. 0.748 mg/L): 3,780 ± 305 ng/mg of liver; VTG (ng/mg of liver) Male (measured conc. 0.748 mg/L): 3.0 ± 4.2 ng/mg of liver; Fertility rate (%) (measured conc. 2.46 mg/L): 93%; Mortality (%) Female (measured conc. 2.46 mg/L): 0%; Mortality (%) Male (measured conc. 2.46 mg/L): 0%; Number of fertilized eggs (measured conc. 2.46 mg/L): 27; Number of total eggs (measured conc. 2.46 mg/L): 30 ± 2.7 /female/day; SSC Female (measured conc. 2.46 mg/L): 0 ± 0; SSC Male (measured conc. 2.46 mg/L): 112 ± 11; VTG (ng/mg of liver) Female (measured conc. 2.46 mg/L): 4,930 ± 189 ng/mg of liver; VTG (ng/mg of liver) Male (measured conc. 2.46 mg/L): 6.6 ± 11 ng/mg of liver; Fertility rate (%) (measured conc. 10.0 mg/L): 85%; Mortality (%) Female (measured conc. 10.0 mg/L): 0%; Mortality (%) Male (measured conc. 10.0 mg/L): 0%; Number of fertilized eggs (measured conc. 10.0 mg/L): 25; Number of total eggs (measured conc. 10.0 mg/L): 30 ± 1.8 /female/day; SSC Female (measured conc. 10.0 mg/L): 0 ± 0; SSC Male (measured conc. 10.0 mg/L): 110 ± 3.5; VTG (ng/mg of liver) Female (measured conc. 10.0 mg/L): 4,520 ± 906 ng/mg of liver; VTG (ng/mg of liver) Male (measured conc. 10.0 mg/L): 1.0 ± 0.5 ng/mg of liver; effect on fecundity (number of total eggs), in words (within the test concentrations, 21-day exposure): no significant effect
